From PubChem BioAssay (NCI)
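48-hour exposure; five concentrations; linearly interpolated endpoints. Here, GI50 denotes the concentration required for 50% inhibition of growth. TGI is the concentration that stops growth completely.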

How the values were obtained:
Test in all cases: NCI tumour cell line growth inhibition, 48 h
786-0 renal = system: 786-0 renal
A498 renal = system: A498 renal
A549 NSCLC = system: A549 NSCLC
ACHN renal = system: ACHN renal
BT-549 breast = system: BT-549 breast
CAKI-1 renal = system: CAKI-1 renal
CCRF-CEM leukemia = system: CCRF-CEM leukemia
COLO 205 colon = system: COLO 205 colon
DU-145 prostate = system: DU-145 prostate
EKVX NSCLC = system: EKVX NSCLC
HCC-2998 colon = system: HCC-2998 colon
HCT-116 colon = system: HCT-116 colon
HCT-15 colon = system: HCT-15 colon
HL-60(TB) leukemia = system: HL-60(TB) leukemia
HOP-62 NSCLC = system: HOP-62 NSCLC
HOP-92 NSCLC = system: HOP-92 NSCLC
HS 578T breast = system: HS 578T breast
HT29 colon = system: HT29 colon
IGROV1 ovarian = system: IGROV1 ovarian
K-562 leukemia = system: K-562 leukemia
KM12 colon = system: KM12 colon
LOX IMVI melanoma = system: LOX IMVI melanoma
M14 melanoma = system: M14 melanoma
MALME-3M melanoma = system: MALME-3M melanoma
MCF7 breast = system: MCF7 breast
MDA-MB-231 breast = system: MDA-MB-231 breast
MDA-MB-435 = system: MDA-MB-435
MOLT-4 leukemia = system: MOLT-4 leukemia
NCI-H226 lung = system: NCI-H226 lung
NCI-H23 lung = system: NCI-H23 lung
NCI-H460 lung = system: NCI-H460 lung
NCI-H522 lung = system: NCI-H522 lung
NCI/ADR-RES ovarian = system: NCI/ADR-RES ovarian
OVCAR-3 ovarian = system: OVCAR-3 ovarian
OVCAR-4 ovarian = system: OVCAR-4 ovarian
OVCAR-5 ovarian = system: OVCAR-5 ovarian
OVCAR-8 ovarian = system: OVCAR-8 ovarian
PC-3 prostate = system: PC-3 prostate
RPMI-8226 leukemia = system: RPMI-8226 leukemia
RXF 393 renal = system: RXF 393 renal
SF-268 CNS = system: SF-268 CNS
SF-295 CNS = system: SF-295 CNS
SF-539 CNS = system: SF-539 CNS
SK-MEL-2 melanoma = system: SK-MEL-2 melanoma
SK-MEL-28 melanoma = system: SK-MEL-28 melanoma
SK-MEL-5 melanoma = system: SK-MEL-5 melanoma
SK-OV-3 ovarian = system: SK-OV-3 ovarian
SN12C renal = system: SN12C renal
SNB-19 CNS = system: SNB-19 CNS
SNB-75 CNS = system: SNB-75 CNS
SW-620 colon = system: SW-620 colon
T-47D breast = system: T-47D breast
TK-10 renal = system: TK-10 renal
U251 CNS = system: U251 CNS
UACC-257 melanoma = system: UACC-257 melanoma
UACC-62 melanoma = system: UACC-62 melanoma
UO-31 renal = system: UO-31 renal

## CCCCC(CCCCCC(CCCC)C1NC(C)Cc2cc(OC)c(OC)cc21)C1NC(C)Cc2cc(OC)c(OC)cc21 (centres undefined)
786-0 renal
  GI50: 1690 nM
  TGI: 3150 nM
A498 renal
  GI50: 1410 nM
  TGI: 2730 nM
A549 NSCLC
  GI50: 1570 nM
  TGI: 3020 nM
ACHN renal
  GI50: 1760 nM
  TGI: 3210 nM
BT-549 breast
  GI50: 1790 nM
  TGI: 3260 nM
CAKI-1 renal
  GI50: 1720 nM
  TGI: 3710 nM
CCRF-CEM leukemia
  GI50: 2150 nM
  TGI: 4660 nM
COLO 205 colon
  GI50: 294 nM
  TGI: 842 nM
DU-145 prostate
  GI50: 1800 nM
  TGI: 3230 nM
EKVX NSCLC
  GI50: 1710 nM
  TGI: 3610 nM
HCC-2998 colon
  GI50: 250 nM
  TGI: 742 nM
HCT-116 colon
  GI50: 1490 nM
  TGI: 2960 nM
HCT-15 colon
  GI50: 1310 nM
  TGI: 2760 nM
HL-60(TB) leukemia
  GI50: 1840 nM
  TGI: 3790 nM
HOP-62 NSCLC
  GI50: 1470 nM
  TGI: 2880 nM
HOP-92 NSCLC
  GI50: 1060 nM
  TGI: 2580 nM
HS 578T breast
  GI50: 1430 nM
  TGI: 3600 nM
HT29 colon
  GI50: 340 nM
  TGI: 1190 nM
IGROV1 ovarian
  GI50: 1940 nM
  TGI: 4260 nM
K-562 leukemia
  GI50: 328 nM
  TGI: 1180 nM
KM12 colon
  GI50: 1570 nM
  TGI: 3060 nM
LOX IMVI melanoma
  GI50: 1320 nM
  TGI: 2680 nM
M14 melanoma
  GI50: 1790 nM
  TGI: 3390 nM
MALME-3M melanoma
  GI50: 1900 nM
  TGI: 3940 nM
MCF7 breast
  GI50: 1190 nM
  TGI: 2520 nM
MDA-MB-231 breast
  GI50: 1280 nM
  TGI: 2600 nM
MDA-MB-435
  GI50: 1760 nM
  TGI: 4190 nM
MOLT-4 leukemia
  GI50: 1960 nM
  TGI: 4220 nM
NCI-H226 lung
  GI50: 1530 nM
  TGI: 3010 nM
NCI-H23 lung
  GI50: 1670 nM
  TGI: 3200 nM
NCI-H460 lung
  GI50: 1450 nM
  TGI: 2970 nM
NCI-H522 lung
  GI50: 1700 nM
  TGI: 3250 nM
NCI/ADR-RES ovarian
  GI50: 1610 nM
  TGI: 3070 nM
OVCAR-3 ovarian
  GI50: 1830 nM
  TGI: 3270 nM
OVCAR-4 ovarian
  GI50: 1450 nM
  TGI: 2760 nM
OVCAR-5 ovarian
  GI50: 1820 nM
  TGI: 3250 nM
OVCAR-8 ovarian
  GI50: 1730 nM
  TGI: 3290 nM
PC-3 prostate
  GI50: 1770 nM
  TGI: 3510 nM
RPMI-8226 leukemia
  GI50: 1990 nM
  TGI: 4430 nM
RXF 393 renal
  GI50: 1200 nM
  TGI: 2480 nM
SF-268 CNS
  GI50: 1640 nM
  TGI: 3080 nM
SF-295 CNS
  GI50: 1830 nM
  TGI: 3790 nM
SF-539 CNS
  GI50: 1760 nM
  TGI: 3210 nM
SK-MEL-2 melanoma
  GI50: 2250 nM
  TGI: 3880 nM
SK-MEL-28 melanoma
  GI50: 1600 nM
  TGI: 2950 nM
SK-MEL-5 melanoma
  GI50: 1520 nM
  TGI: 2850 nM
SK-OV-3 ovarian
  GI50: 1570 nM
  TGI: 2910 nM
SN12C renal
  GI50: 1630 nM
  TGI: 3040 nM
SNB-19 CNS
  GI50: 1700 nM
  TGI: 3150 nM
SNB-75 CNS
  GI50: 1280 nM
  TGI: 2570 nM
SW-620 colon
  GI50: 819 nM
  TGI: 2200 nM
T-47D breast
  GI50: 1600 nM
  TGI: 3110 nM
TK-10 renal
  GI50: 1750 nM
  TGI: 3220 nM
U251 CNS
  GI50: 1290 nM
  TGI: 2630 nM
UACC-257 melanoma
  GI50: 1710 nM
  TGI: 3220 nM
UACC-62 melanoma
  GI50: 1670 nM
  TGI: 3050 nM
UO-31 renal
  GI50: 1670 nM
  TGI: 3730 nM
